# Measured values: the supplement of paper PMC10307832
# Key:
# Experiment in all cases: relative viability (nuclei count vs DMSO), 5 days (fraction); higher = more cells survive
# [1] = compound: C1COCCN1C2=NC(=NC3=C2OC4=C3C=CC=N4)C5=CC(=CC=C5)NC(=O)C6=CN=C(C=C6)N + O=C(CCCCCCC(=O)Nc1ccccc1)NO [Vorinostat] (partner 1 µM)
# How it was run: (§1)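 Lung cancer cell lines were seeded in 1536-well plates and dosed by pin tool the next day, with either a single drug or a fixed anchor-drug dose combined with five library-drug doses (not always all listed) spaced in √10 steps. Five days later, one step fixed the cells and stained their nuclei (final 0.05% Triton X-100, 1% formaldehyde, 1 ug/ml Hoechst), and nuclei were counted on 4× images. Relative viability is the nuclei count in treated wells divided by the count in vehicle wells, and each value is the median of duplicate plates.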
# [2] = compound: C1COCCN1C2=NC(=NC3=C2OC4=C3C=CC=N4)C5=CC(=CC=C5)NC(=O)C6=CN=C(C=C6)N + NC(=O)Nc1cc(-c2cccc(F)c2)sc1C(=O)N[C@H]1CCCNC1 [AZD7762] (partner 0.2 µM)
# How it was run: as §1
# [3] = compound: C1COCCN1C2=NC(=NC3=C2OC4=C3C=CC=N4)C5=CC(=CC=C5)NC(=O)C6=CN=C(C=C6)N + O=C(c1cc(Cc2n[nH]c(=O)c3ccccc23)ccc1F)N1CCN(C(=O)C2CC2)CC1 [Olaparib] (partner 8 µM)
# How it was run: as §1
# SGI-1776 + Vorinostat = compound: CN1CCC(CNc2ccc3ncc(-c4cccc(OC(F)(F)F)c4)n3n2)CC1 [SGI-1776] + O=C(CCCCCCC(=O)Nc1ccccc1)NO [Vorinostat] (partner 1 µM)
# How it was run: as §1
cell line,measurement,setting,value
NCI-H838,relative viability,[1]; first compound 0.02 µM,0.725
same,relative viability,[1]; first compound 0.06325 µM,0.754
same,relative viability,[1]; first compound 0.2 µM,0.676
same,relative viability,[1]; first compound 0.6325 µM,0.646
same,relative viability,[1]; first compound 2 µM,0.5
same,relative viability,[2]; first compound 0.02 µM,0.95
same,relative viability,[2]; first compound 0.06325 µM,0.967
same,relative viability,[2]; first compound 0.2 µM,0.999
same,relative viability,[2]; first compound 0.6325 µM,0.827
same,relative viability,[2]; first compound 2 µM,0.755
same,relative viability,[3]; first compound 0.02 µM,0.86
same,relative viability,[3]; first compound 0.06325 µM,0.812
same,relative viability,[3]; first compound 0.2 µM,0.743
same,relative viability,[3]; first compound 0.6325 µM,0.741
same,relative viability,[3]; first compound 2 µM,0.353
same,relative viability,SGI-1776 + Vorinostat; first compound 0.08 µM,0.794
same,relative viability,SGI-1776 + Vorinostat; first compound 0.8 µM,0.697
same,relative viability,SGI-1776 + Vorinostat; first compound 2.53 µM,0.676
same,relative viability,SGI-1776 + Vorinostat; first compound 8 µM,0.522
HARA,relative viability,[1]; first compound 0.02 µM,0.463
same,relative viability,[1]; first compound 0.06325 µM,0.597
same,relative viability,[1]; first compound 0.2 µM,0.51
same,relative viability,[1]; first compound 0.6325 µM,0.431
same,relative viability,[1]; first compound 2 µM,0.361
same,relative viability,[2]; first compound 0.02 µM,0.382
same,relative viability,[2]; first compound 0.06325 µM,0.41
same,relative viability,[2]; first compound 0.2 µM,0.305
same,relative viability,[2]; first compound 0.6325 µM,0.403
same,relative viability,[2]; first compound 2 µM,0.359
same,relative viability,[3]; first compound 0.02 µM,0.845
same,relative viability,[3]; first compound 0.06325 µM,0.727
same,relative viability,[3]; first compound 0.2 µM,1.09
same,relative viability,[3]; first compound 0.6325 µM,0.764
same,relative viability,[3]; first compound 2 µM,0.75
same,relative viability,SGI-1776 + Vorinostat; first compound 0.08 µM,0.497
same,relative viability,SGI-1776 + Vorinostat; first compound 0.8 µM,0.515
same,relative viability,SGI-1776 + Vorinostat; first compound 2.53 µM,0.559
same,relative viability,SGI-1776 + Vorinostat; first compound 8 µM,0.438
NCI-H23,relative viability,[1]; first compound 0.02 µM,0.609
same,relative viability,[1]; first compound 0.06325 µM,0.635
same,relative viability,[1]; first compound 0.2 µM,0.5
same,relative viability,[1]; first compound 0.6325 µM,0.473
same,relative viability,[1]; first compound 2 µM,0.468
same,relative viability,[2]; first compound 0.02 µM,0.241
same,relative viability,[2]; first compound 0.06325 µM,0.23
same,relative viability,[2]; first compound 0.2 µM,0.24
same,relative viability,[2]; first compound 0.6325 µM,0.174
same,relative viability,[2]; first compound 2 µM,0.216
same,relative viability,[3]; first compound 0.02 µM,0.417
same,relative viability,[3]; first compound 0.06325 µM,0.314
same,relative viability,[3]; first compound 0.2 µM,0.281
same,relative viability,[3]; first compound 0.6325 µM,0.3
same,relative viability,[3]; first compound 2 µM,0.226
same,relative viability,SGI-1776 + Vorinostat; first compound 0.08 µM,0.639
same,relative viability,SGI-1776 + Vorinostat; first compound 0.8 µM,0.758
same,relative viability,SGI-1776 + Vorinostat; first compound 2.53 µM,0.602
same,relative viability,SGI-1776 + Vorinostat; first compound 8 µM,0.533
LOU-NH91,relative viability,[1]; first compound 0.02 µM,0.95
same,relative viability,[1]; first compound 0.06325 µM,0.975
same,relative viability,[1]; first compound 0.2 µM,0.926
same,relative viability,[1]; first compound 0.6325 µM,0.86
same,relative viability,[1]; first compound 2 µM,0.78
same,relative viability,[2]; first compound 0.02 µM,0.733
same,relative viability,[2]; first compound 0.06325 µM,0.793
same,relative viability,[2]; first compound 0.2 µM,0.734
same,relative viability,[2]; first compound 0.6325 µM,0.748
same,relative viability,[2]; first compound 2 µM,0.59
same,relative viability,[3]; first compound 0.02 µM,0.928
same,relative viability,[3]; first compound 0.06325 µM,0.959
same,relative viability,[3]; first compound 0.2 µM,0.942
same,relative viability,[3]; first compound 0.6325 µM,0.864
same,relative viability,[3]; first compound 2 µM,0.745
same,relative viability,SGI-1776 + Vorinostat; first compound 0.08 µM,0.976
same,relative viability,SGI-1776 + Vorinostat; first compound 0.8 µM,1
same,relative viability,SGI-1776 + Vorinostat; first compound 2.53 µM,0.845
same,relative viability,SGI-1776 + Vorinostat; first compound 8 µM,0.644
LCLC-103H,relative viability,[1]; first compound 0.02 µM,0.806
same,relative viability,[1]; first compound 0.06325 µM,0.804
same,relative viability,[1]; first compound 0.2 µM,0.699
same,relative viability,[1]; first compound 0.6325 µM,0.728
same,relative viability,[1]; first compound 2 µM,0.698
same,relative viability,[2]; first compound 0.02 µM,0.809
same,relative viability,[2]; first compound 0.06325 µM,0.784
same,relative viability,[2]; first compound 0.2 µM,0.8
same,relative viability,[2]; first compound 0.6325 µM,0.81
same,relative viability,[2]; first compound 2 µM,0.631
same,relative viability,[3]; first compound 0.02 µM,0.732
same,relative viability,[3]; first compound 0.06325 µM,0.799
same,relative viability,[3]; first compound 0.2 µM,0.815
same,relative viability,[3]; first compound 0.6325 µM,0.745
same,relative viability,[3]; first compound 2 µM,0.502
same,relative viability,SGI-1776 + Vorinostat; first compound 0.08 µM,0.839
same,relative viability,SGI-1776 + Vorinostat; first compound 0.8 µM,0.862
same,relative viability,SGI-1776 + Vorinostat; first compound 2.53 µM,0.832
same,relative viability,SGI-1776 + Vorinostat; first compound 8 µM,0.652
SW 1573,relative viability,[1]; first compound 0.02 µM,0.737
same,relative viability,[1]; first compound 0.06325 µM,0.953
same,relative viability,[1]; first compound 0.2 µM,0.705
same,relative viability,[1]; first compound 0.6325 µM,0.552
same,relative viability,[1]; first compound 2 µM,0.451
same,relative viability,[3]; first compound 0.02 µM,0.488
same,relative viability,[3]; first compound 0.06325 µM,0.508
same,relative viability,[3]; first compound 0.2 µM,0.439
same,relative viability,[3]; first compound 0.6325 µM,0.459
same,relative viability,[3]; first compound 2 µM,0.36
same,relative viability,SGI-1776 + Vorinostat; first compound 0.08 µM,1.12
same,relative viability,SGI-1776 + Vorinostat; first compound 0.8 µM,0.461
same,relative viability,SGI-1776 + Vorinostat; first compound 2.53 µM,0.607
same,relative viability,SGI-1776 + Vorinostat; first compound 8 µM,0.312
EKVX,relative viability,[1]; first compound 0.02 µM,0.698
same,relative viability,[1]; first compound 0.06325 µM,0.794
same,relative viability,[1]; first compound 0.2 µM,0.678
same,relative viability,[1]; first compound 0.6325 µM,0.644
same,relative viability,[1]; first compound 2 µM,0.556
same,relative viability,[2]; first compound 0.02 µM,0.9
same,relative viability,[2]; first compound 0.06325 µM,0.869
same,relative viability,[2]; first compound 0.2 µM,0.747
same,relative viability,[2]; first compound 0.6325 µM,0.709
same,relative viability,[2]; first compound 2 µM,0.578
same,relative viability,[3]; first compound 0.02 µM,0.929
same,relative viability,[3]; first compound 0.06325 µM,0.831
same,relative viability,[3]; first compound 0.2 µM,0.88
same,relative viability,[3]; first compound 0.6325 µM,0.832
same,relative viability,[3]; first compound 2 µM,0.563
same,relative viability,SGI-1776 + Vorinostat; first compound 0.08 µM,0.854
same,relative viability,SGI-1776 + Vorinostat; first compound 0.8 µM,0.778
same,relative viability,SGI-1776 + Vorinostat; first compound 2.53 µM,0.717
same,relative viability,SGI-1776 + Vorinostat; first compound 8 µM,0.829
